Six compounds from US12384756B2, “Piperidinedione derivatives” (INNOCURE THERAPEUTICS, INC., priority 2021, dated 2025) can be followed below.

Holding throughout (format): cell-based
Assay [1] deals with T1, BRD4 (Homo sapiens, UniProt O60885). Briefly: BRD4 degradation by western blot in A549 cells. Also on record: BRD4 expressed in cells; endogenous in cells. Here is the method:
The human lung cancer cell line A549 was purchased from the Korean Cell Line Bank.
5×10^5 cells were seeded for each well of the 6 well plate (SPL company), and the cells were cultured with a total of 1.5 mL of the culture medium volume. The cultured cells were treated with various concentrations (0 nM, 0.1 nM, 0.3 nM, 1 nM, 3 nM, 10 nM, 30 nM, 100 nM, 300 nM, 1000 nM, 3000 nM, 10000 nM) of PROTAC compound according to the present invention and cultured for 24 hours.
For cell lysis, a lysis buffer was added and cell lysate was obtained using a cell scraper.
Specifically, cells were treated with 70 μl of 1×RIPA buffer containing protease inhibitors. Cell lysate was collected on ice using a scraper and incubated for 30 minutes. Then, cells were centrifuged at 4° C. 15,000 rpm for 30 minutes to obtain a cell lysate.
The standard curve was obtained using BCA assay, and the protein mass in the lysate was quantified by substituting the standard curve. The mixture was incubated at 37° C. for 30 minutes using a sample solution of 1 μl and a BCA solution of 200 μl. The absorbance was measured at 562 nm. Samples were prepared by adding a sample buffer to reach 10 μg per well.
SDS-PAGE was conducted by setting a running time of 70 minutes at 110 V in a 4-15% Mini-PROTEAN TGX stain-free gel (15 wells). A transfer was conducted using a trans-blot turbo transfer system (Bio-rad). Blocking was conducted using a blocking-grade blocker (Bio-rad) for 1 hour. Then, it was washed with 1×TBS containing 0.1% tween 20, and reacted with anti-BRD4 antibody (1:3000) or anti-beta-tubulin antibody (1:3000) in bovine serum albumin as a primary antibody at 4° C. for 16 hours. After washing three times for 10 minutes with 1×TBS containing 0.1% tween 20, it was reacted with anti-rabbit antibody (1:10000) in the blotting-grade blocker as a secondary antibody at room temperature for 1 hour. Then, after washing three times for 10 minutes with 1×TBS containing 0.1% tween 20, detection was conducted with SUPERSIGNAL™ WEST PICO PLUS chemiluminescence substrate.
For result analysis, final blot data were obtained using an image analyzer (GE).
DC50^1): DC50 value is calculated by comparing band intensity with that of a sample which is not treated with a PROTAC compound as a controlled group.
DC50^2): DC50 value is calculated by comparing the band intensity relative to that of beta-tubulin with that of the controlled group.
(In western blotting, separated proteins are transferred to a membrane and probed.)

Assay [2] concerns Human breast cancer cell line [MDA-MB-231]. Briefly: Anti-proliferative activity (WST-8) of BRD4 targeted PROTAC in MDA-MB-231. The following applies: Homo sapiens, MDA-MB-231, 72 hours. Here is the method:
(§1) Human breast cancer cell line [MDA-MB-231] was cultured in RPMI medium with 10% petal bovine serum, penicillin [100 U/ml] and streptomycin [[…]]. The synthesized compound was prepared as a stock solution of 10 mM or 50 mM dissolved in DMSO [dimethyl sulfoxide], and it was sequentially diluted to treat the cell line.
In order to observe inhibition of cell growth, cells were aliquoted into concentrations of 5,000 cells/well at 96 well plates, and then were treated with samples prepared at various concentrations for 72 hours. The cell survival was calculated by steps of adding in each well […] of water soluble tetrazolium salt (WST-8) which produces formazon in response to dehydrogenase present in the electron transport chain in mitochondria, incubating for 2 hours, measuring the absorbance at 450 nm, and calculating by GraphicPad Prism 8.0 software.
In general terms: Formazan colour is commonly taken as a measure of viable cells.

In assay [3] the target is T1, BRD4. The assay is described as follows: BRD4 protein degradation by western blot in MDA-MB-231 cells. Also on record: BRD4 expressed in cells; endogenous in cells; host or cells: MDA-MB-231. To be noted: MDA-MB-231, 24 hours; for DC50: 50% inhibition of protein expression, read-out: DC50 of BRD4-targeted PROTAC. Here is the method: as §1
To evaluate the PROTAC's degradation ability to BRD4 expressed in cells, the cells were aliquoted into a 6 well plate at a concentration of 5×10^5 cells/ml, and then the sample was treated for 24 hours. In order to conduct western blotting assay to confirm protein expression, the cell treated with the compound was treated for 30 minutes with 70 μL of RIPA buffer wherein protease inhibitor is added. Then, cell lysate was collected on ice using a scraper and centrifuged at 4° C. 15,000 rpm for 30 minutes to obtain a supernatant containing protein. Then, SDS-PAGE is conducted for 10 μg of protein per each sample, and the protein is transferred to a membrane. The protein is reacted with antibodies of anti-BRD4, anti-tubulin and anti-GAPDH at 4° C. for 16 hours, and then, reacted with secondary antibodies at room temperature for 1 hour. The protein expression is confirmed using SUPERSIGNAL™ WEST PICO PLUS chemiluminescence substrate and image analyzer. The protein expression was normalized based on the expression value of β-tublin or GAPDH. The amount of protein expression in each sample was measured in % based on the sample treated with 0.1% DMSO vehicle which was set to 100%. The amount of protein expression was quantified using the IMAGE J PROGRAM. The change in the amount of protein expression due to the treatment of compound (DC50: the concentration of compounds where the 50% inhibition of protein expression is achieved) was calculated using […] PRISM 8.0 software.

Where [4] appears, read: A549, 24 hours; band intensity compared with untreated control; read-out: DC50 1).
The mark [5] stands for this setting: A549, 24 hours; band intensity relative to beta-tubulin compared with control; read-out: DC50 2).
Setting [6] is: WST-8, read-out: IC50 of BRD4-targeted PROTAC (cell proliferation).
[7] abbreviates: read-out: concentration at which cancer cell proliferation is effectively inhibited.

Like-named read-outs stand apart in the source and are kept apart here.

Turning to `Cc1sc2c(c1C)C(c1ccc(Cl)cc1)=N[C@@H](CC(=O)NCOCCOCCOCCNc1cccc3cnn(C4CCC(=O)NC4=O)c(=O)c13)c1nnc(C)n1-2` (stereo partly drawn) [Ex. 21, 2-((S)-4-(4-chlorophenyl)-2,3,9-trimethyl-6H-thieno[3,2-f][1,2,4]triazolo[4,3-a][1,4]diazepin-6-yl)-N-((2-(2-(2-((3-(2,6-dioxopiperidin-3-yl)-4-oxo-3,4-dihydrophthalazin-5-yl)amino)ethoxy)ethoxy)ethoxy)methyl)acetamide], the DC50 on BRD4 [1] (setting [4]) amounted to 1600 nM; at BRD4 [1] (setting [5]), 242 nM.
Take `Cc1sc2c(c1C)C(c1ccc(Cl)cc1)=N[C@@H](CC(=O)Nc1ccc(OCCOCCOCCOCCNc3ccc4c(=O)n(C5CCC(=O)NC5=O)ncc4c3)cc1)c1nnc(C)n1-2` (stereo partly drawn) [Ex. 28, 2-((S)-4-(4-chlorophenyl)-2,3,9-trimethyl-6H-thieno[3,2-f][1,2,4]triazolo[4,3-a][1,4]diazepin-6-yl)-N-(4-(2-(2-(2-(2-((2-(2,6-dioxopiperidin-3-yl)-1-oxo-1,2-dihydrophthalazin-6-yl)amino)ethoxy)ethoxy)ethoxy)ethoxy)phenyl)acetamide]: the IC50 in assay [2] (setting [6]) is 33.1 nM; in assay [2] (setting [7]), less than 250 nM. In addition, the DC50 on BRD4 [1] (setting [4]) was found to be 25.3 nM; on BRD4 [1] (setting [5]), 299 nM; on BRD4 [3], 3.3 nM. Further, the “BRD4 degradation (in words)” value at BRD4 [3] is “effectively degraded”.
In the case of `Cc1sc2c(c1C)C(c1ccc(Cl)cc1)=N[C@@H](CC(=O)Nc1ccc(OCCOCCOCCOCCNc3cccc4cnn(C5CCC(=O)NC5=O)c(=O)c34)cc1)c1nnc(C)n1-2` (stereo partly drawn) [Ex. 27, 2-[(9S)-7-(4-chlorophenyl)-4,5,13-trimethyl-3-thia-1,8,11,12-tetraazatricyclo[8.3.0.0^2,6]trideca-2(6),4,7,10,12-pentaen-9-yl]-N-[4-(2-{2-[2-(2-{[3-(2,6-dioxopiperidin-3-yl)-4-oxo-3,4-dihydrophthalazin-5-yl]amino}ethoxy)ethoxy]ethoxy}ethoxy)phenyl]acetamide], in assay [2] (setting [6]), the IC50 worked out at 640 nM. In addition, the results for the half-maximal degradation concentration (DC50) at BRD4 [1] (setting [4]) and at BRD4 [1] (setting [5]) were 9.21 nM and 11.9 nM, respectively.
The matching figures for `Cc1sc2c(c1C)C(c1ccc(Cl)cc1)=N[C@@H](CC(=O)Nc1ccc(OCCOCCOCCNc3ccc4cnn(C5CCC(=O)NC5=O)c(=O)c4c3)cc1)c1nnc(C)n1-2` (stereo partly drawn) [Ex. 26, 2-((S)-4-(4-chlorophenyl)-2,3,9-trimethyl-6H-thieno[3,2-f][1,2,4]triazolo[4,3-a][1,4]diazepin-6-yl)-N-(4-(2-(2-(2-((3-(2,6-dioxopiperidin-3-yl)-4-oxo-3,4-dihydrophthalazin-6-yl)amino)ethoxy)ethoxy)ethoxy)phenyl)acetamide]: 126 nM, 22 nM and 568 nM.
As to `Cc1sc2c(c1C)C(c1ccc(Cl)cc1)=N[C@@H](CC(=O)Nc1cccc(OCCOCCOCCNc3cccc4cnn(C5CCC(=O)NC5=O)c(=O)c34)c1)c1nnc(C)n1-2` (stereo partly drawn) [Ex. 23, 2-((S)-4-(4-chlorophenyl)-2,3,9-trimethyl-6H-thieno[3,2-f][1,2,4]triazolo[4,3-a][1,4]diazepin-6-yl)-N-(3-(2-(2-(2-((3-(2,6-dioxopiperidin-3-yl)-4-oxo-3,4-dihydrophthalazin-5-yl)amino)ethoxy)ethoxy)ethoxy)phenyl)acetamide], the IC50 was 32.2 nM in assay [2] (setting [6]) and less than 250 nM in assay [2] (setting [7]). In addition, the DC50 was 11.3 nM on BRD4 [1] (setting [4]), 10.9 nM on BRD4 [1] (setting [5]) and 2.6 nM on BRD4 [3]. The “BRD4 degradation (in words)” value on BRD4 [3] was “effectively degraded”.
For the compound `Cc1sc2c(c1C)C(c1ccc(Cl)cc1)=N[C@@H](CC(=O)Nc1ccc(OCCOCCOCCNc3ccc4c(=O)n(C5CCC(=O)NC5=O)ncc4c3)cc1)c1nnc(C)n1-2` (stereo partly drawn) [Ex. 25, 2-((S)-4-(4-chlorophenyl)-2,3,9-trimethyl-6H-thieno[3,2-f][1,2,4]triazolo[4,3-a][1,4]diazepin-6-yl)-N-(4-(2-(2-(2-((2-(2,6-dioxopiperidin-3-yl)-1-oxo-1,2-dihydrophthalazin-6-yl)amino)ethoxy)ethoxy)ethoxy)phenyl)acetamide], the IC50 in assay [2] (setting [6]) amounted to 232 nM. For the same compound, the DC50 was 56.9 nM on BRD4 [1] (setting [4]) and 49.6 nM at BRD4 [1] (setting [5]).

As usually defined, the DC50 is the concentration at which degradation of the target reaches its halfway point.
